Measurements from US12102685B2, “Immodulator peptides covalently modified with small molecules” (priority 2020, dated 2024).
Marks after values point to notes of the source that are not given here. Peptide text beside a SMILES is read from it.

Key:
rat scald model = experiment: Rat scald model, N-terminally modified nephrilin-iron complexes (x5B); type: in vivo, Sprague Dawley rats; details: male rats, burn, 2 mg/kg peptide complexed with ferric iron, sc days 1-7
Protocol: Effect of N-terminal modifications on the efficacy of nephrilin IM3N1 peptide in the rat scald model. In this study, five nephrilin-iron binary complexes were compared: IM3N1 (unmodified) and the following: IM3N1vlp (valproic acid), IM3N1dec (decanoic acid), IM3N1fen (fenofibric acid), and IM3N1ibu (ibuprofen). Adult male Sprague Dawley rats (300 gm, Charles River Laboratories, Wilmington, MA, USA) were injected with peptides formulated with equimolar metal ferric iron once daily by subcutaneous bolus injection, days 1-7.
Treatment group sizes were (n=6) for each group: group S=sham-treated; group B=burn+vehicle; group N1=burn+2 mg/kg nephrilin IM3N1; group N1V=burn+2 mg/kg IM3N1vlp; group N1D=burn+2 mg/kg IM3N1dec; group N1F=burn+2 mg/kg IM3N1fen; group N1I=burn+2 mg/kg IM3N1ibu. The first dose was administered after completion of the scald procedure. Injection volume was 400 uL. Control animals received the same volume of vehicle. Rat scald model was performed and measurements taken as described in Experiment x5A.

[1] = system: genes associated with oxidative stress in dorsal root ganglia; experiment: qRT-PCR of dorsal root ganglia 14 days after burn; type: in vivo, Sprague Dawley rats; details: DRG 14 days after burn, sham = 1
Text: Survivors of severe burns suffer lifetime neuroinflammatory consequences manifested by higher incidence of major depression and neurodegenerative disease. […] Nephrilin's mechanism of action appears to involve protection from excessive oxidative stress. Using quantitative reverse transcriptase polymerase chain reaction (qRT-PCR) amplification of transcripts in total RNA extracted from dorsal root ganglia (DRG) of male rats 14 days after exposure to thermal insult, we query the relative levels of expression of 34 genes believed to be associated with oxidative stress biology in the CNS. […] This subset analysis of DRG from a previously published study (n=3 per group) is associated with the following effects in the study (Table x7A):
In this study, using quantitative reverse transcriptase polymerase chain reaction (qRT-PCR) amplification of transcripts in total RNA extracted from dorsal root ganglia of male rats 14 days after exposure to thermal insult, the relative levels of expression of 34 genes believed to be associated with oxidative stress biology in the CNS were queried, with an emphasis on astrogliosis, immunosuppression and mitochondrial homeostasis. The 34 genes studied were selected based on their known implication in the above processes, as described in the scientific literature. Dorsal root ganglia (DRG) were dissected from male adult Sprague Dawley rats (300 gm, Charles River Laboratories, Wilmington, MA, USA), three randomly selected animals in each treatment group were used (Group 1:sham; Group 2: burn+vehicle; Group 3: burn+IM3N1) and total RNA was extracted from each pool using the Rneasy Midi Kit (Qiagen, Germantown, MD). Yield was ˜30 ug RNA per pool and A260/A280 ratios were between 1.87-2.04 in all cases. The high quality of each RNA prep was further confirmed by electrophoresis (using Eukaryote Total RNA Nano). For quantitative reverse transcriptase polymerase chain reaction (qRT-PCR) RNAs were diluted in RNase/DNase free water and aliquoted into wells in triplicate. Approximately 100 ng of RNA was used per well. A one step qPCR method was performed using Luna Universal One-Step RT-qPCR kit (New England Biolabs, Ipswich, MA) containing reverse transcriptase enzyme mix. Primer pairs for each gene were synthesized for the SYBR assay. The following standard qPCR cycling conditions were used: 55C for 10′ (for RT), 95C for 1′ followed by 40 cycles at 95C for 10 s. 58C for 30 s. Background was set at 3-10 cycles and the threshold was set at 0.02 for all runs. Ct values were collected and analyzed using the “delta-delta Ct” method. Transcript data for each gene are shown relative to GAPDH, a house-keeping gene. Sham group value was set to 1. Gene groups: [A] astrocyte activation; [B] MDSC-mediated immunosuppression; [C] Mitochondrial homeostasis; [D] Downstream effects of oxidative stress;

[2] = Competition binding assay to metal-charged NTA-coated plates (x2B b); details: for FITC-IM3 fluorescence with competitor: PBS on calcium = 100
Protocol: NTA-metal-affinity fluorescence assay was performed using 96-well NTA-metal-coated plates readily available from commercial sources such as Qiagen (Germantown, MD). NTA was charged with ferrous or ferric iron, zinc, copper, calcium, vanadium, ruthenium, cobalt, titanium, manganese or other metals. 400 ng of FITC-labeled immodulator peptide (or biotinylated immodulator peptide complexed to Alexa-488-labeled streptavidin) in PBS buffer was added per plate. After incubation at room temperature for 60 minutes, excess peptide was washed off and peptide was detected by measuring fluorescence (excitation 490 nm, emmission 525 nm) in a fluorometer. • (a) Using FITC-labeled IM3 peptide (1 ug/well) in the fluorescent binding assay: • EDTA-treated control: 2,251±1,186 • Ferrous iron: 170,441±11,264 (p<0.001)* • Copper: 13,644±5566 (p<0.05)* • Calcium: 48,822±11,990 (p<0.01)* • *p values are relative to EDTA-treated control • (b) Competition binding assay to ferrous iron, calcium, copper and zinc-charged NTA-coated plates using FITC-labeled IM3 peptide (0.5 uM) and 8× (4 uM) unlabelled competitor peptides IM3N1, IM3N2 (*all comparisons to PBS control are p<0.01); # fluorescent value of binding to […] was set at 100.

## RGVTEDYLRLETLVQKVVSKGFYKKKQCRPSKGRKRGFCW [IM3N1]
Rat scald model
  1: early inflammation (24-hr plasma IL-6): 38.5 ± 27.8 pg/mL
  2a: 14-day plasma inflammasome marker IL18: 220.4 ± 32.1 pg/mL
  2b: 14-day plasma inflammasome marker IL1b: 52.9 ± 7.8 pg/mL
  3a: 14-day plasma hyperangiogenesis marker VEGF-A: 37.8 ± 15.3 pg/mL
  3b: 14-day plasma hyperangiogenesis marker CCL5: 248.3 ± 29.7 pg/mL
  3c: 14-day plasma hyperangiogenesis marker CXCL5: 855 ± 233 pg/mL
  4: glycemic control, 14-day GTT (AUC): 136.4 ± 69.2 mg·dL·h
  5: kidney function, 14-day plasma creatinine: 0.31 ± 0.09 mg/dL
  6: systemic oxidative stress, 14-day plasma OHDG: 374 ± 187 pg/mL
  7: weight loss (slope): 2.99 ± 0.53
  3d: hyperangiogenesis marker PctRedPix: 6.53 ± 3.16
[1]; [A] astrocyte activation, IM3N1 4 mg/kg sc 7 days
  GFAP transcript relative to GAPDH: 2.40
[1]; [A]
  AQP4 transcript relative to GAPDH: 0.59
  CTGF transcript relative to GAPDH: 1.61
  GALANIN transcript relative to GAPDH: 18.50
  NPY transcript relative to GAPDH: 29.50
  Pi16 transcript relative to GAPDH: 2.40
  S100A9 transcript relative to GAPDH: 5.01
[1]; [B] MDSC-mediated immunosuppression
  SLC7A11 transcript relative to GAPDH: 4.78
[1]; [B]
  ARG1 transcript relative to GAPDH: 3.09
  CCL2 transcript relative to GAPDH: 3.17
  CD63 transcript relative to GAPDH: 1.88
  NRF2 transcript relative to GAPDH: 1.29
[1]; [C] Mitochondrial homeostasis
  TFAM transcript relative to GAPDH: 1.14
[1]; [C]
  ACMSD transcript relative to GAPDH: 0.97
  BOK transcript relative to GAPDH: 1.10
  FIS1 transcript relative to GAPDH: 0.90
  GLUL transcript relative to GAPDH: 1.53
  HCRTR1 transcript relative to GAPDH: 1.42
  MFN2 transcript relative to GAPDH: 1.48
  NOX2 transcript relative to GAPDH: 2.07
  NOX4 transcript relative to GAPDH: 6.57
  OXR1 transcript relative to GAPDH: 1.04
  PINK1 transcript relative to GAPDH: 1.35
  PPARGC1A transcript relative to GAPDH: 1.00
  RAC1 transcript relative to GAPDH: 1.00
  SHC1 transcript relative to GAPDH: 2.34
  SLC23A2 transcript relative to GAPDH: 1.47
  STEAP4 transcript relative to GAPDH: 1.77
  UCP2 transcript relative to GAPDH: 1.22
[1]; [D] Downstream effects of oxidative stress
  PLSCR1 transcript relative to GAPDH: 2.30
[1]; [D]
  BACE1 transcript relative to GAPDH: 1.42
  SLC12A2 transcript relative to GAPDH: 1.59
  SLC12A5 transcript relative to GAPDH: 1.38
[2]; Calcium, 0.5 uM FITC-IM3, 8x (4 uM) unlabelled competitor
  FITC-IM3 fluorescence with competitor: 14.6 ± 1.4*
[2]; Copper, 8x (4 uM) unlabelled competitor
  FITC-IM3 fluorescence with competitor: 9.2 ± 1.5*
[2]; Ferrous iron, 8x (4 uM) unlabelled competitor
  FITC-IM3 fluorescence with competitor: 20.4 ± 1.0*
[2]; Zinc, 8x (4 uM) unlabelled competitor
  FITC-IM3 fluorescence with competitor: 15.7 ± 1.3*

## N=C(N)NCCC[C@H](NC(=O)CNC(=O)[C@H](CCCCN)NC(=O)[C@H](CO)NC(=O)[C@@H]1CCCN1C(=O)[C@H](CCCNC(=N)N)NC(=O)[C@H](CS)NC(=O)[C@H](CCC(N)=O)NC(=O)[C@H](CCCCN)NC(=O)[C@H](CCCCN)NC(=O)[C@H](CCCCN)NC(=O)[C@H](Cc1ccc(O)cc1)NC(=O)[C@H](Cc1ccccc1)NC(=O)CNC(=O)[C@H](CCCCN)NC(=O)[C@@H](N)CCCCN)C(=O)N[C@@H](CCCCN)C(=O)N[C@@H](CCCNC(=N)N)C(=O)NCC(=O)N[C@@H](Cc1ccccc1)C(=O)N[C@@H](CS)C(=O)N[C@@H](Cc1c[nH]c2ccccc12)C(=O)O [IM3] (H-KKGFYKKKQCRPSKGRKRGFCW-OH; N-terminus and C-terminus assumed)
[2]; Calcium, set at 100
  FITC-IM3 fluorescence, no competitor (PBS): 100.0 ± 1.9
[2]; Copper, calcium = 100
  FITC-IM3 fluorescence, no competitor (PBS): 53.0 ± 0.6
[2]; Ferrous iron, calcium = 100
  FITC-IM3 fluorescence, no competitor (PBS): 85.6 ± 5.8
[2]; Zinc, calcium = 100
  FITC-IM3 fluorescence, no competitor (PBS): 85.9 ± 5.5
